Measurements taken from the NIST ThermoML archive (doi:10.1021/je800012v).

Conditions: Liquid

CCCCCl [1-chlorobutane]
mass density [kg/m3]
Conditions | 100 kPa | 2500 kPa | 5000 kPa | 10000 kPa | 15000 kPa | 20000 kPa | 25000 kPa | 30000 kPa | 35000 kPa
283.15 K | 897.21 | 899.51 | 901.82 | 906.3 | 910.57 | 914.69 | 918.63 | 922.33 | 926.05
293.15 K | 886.18 | 888.63 | 891.13 | 895.89 | – | 904.73 | 908.9 | 912.88 | 916.77
298.15 K | 880.63 | 883.17 | 885.72 | 890.65 | 895.36 | 899.79 | 904.09 | 908.22 | 912.17
303.15 K | 874.92 | 877.59 | 880.23 | 885.43 | 890.24 | 894.84 | 899.24 | 903.46 | 907.47
313.15 K | 863.82 | 866.65 | 869.49 | 874.93 | 880.07 | 884.94 | 889.61 | 894.04 | 898.33
323.15 K | 852.43 | 855.47 | 858.54 | 864.35 | 869.85 | 875.03 | 879.94 | 884.62 | 889.1
333.15 K | 840.79 | 844.06 | 847.37 | 853.61 | 859.47 | 864.97 | 870.17 | 875.12 | 879.82
